Experiments:
[1] = test system: NAD[P]H:(quinone-acceptor) oxidoreductase (QR) in mouse hepatoma Hepa 1c1c7 cells; test: Activation of quinone reductase (QR) in Hepa 1c1c7 cells, menadione-coupled tetrazolium reduction; assay type: cell-based
Description: Activation of Quinone reductase (NAD[P]H:(quinone-acceptor) oxidoreductase (QR). We studied the effects of SP001P and SP 2010 on the activation of QR, a phase 2 enzyme in mouse hepatoma cells Hepa 1c1c7 (ATCC) at lower concentrations. QR protects cells against quinones and highly reactive semiquinones by catalyzing an obligate two-electron reduction of quinones to hydroquinones. We have developed a 96-well plate assay to assess QR activity in these cell lines. QR activity was measured by a menadione-coupled reduction of tetrazolium dye as modified from Prochaska and Santamari. Cells (10^4 per well) were grown for 24 h and then exposed to serial dilutions of inducers for 24 h. Protein concentrations in a corresponding plate were determined by methylene blue staining as described earlier. SP001P and SP 2010 stimulated NAD[P]H:(quinone-acceptor) oxidoreductase (QR), a phase 2 enzyme in a dose dependent manner in mouse hepatoma Hepa 1c1c7 cells at concentrations known to inhibit B[a]P-induced transformation of RTE cells, (FIG. 2). The concentration required to double the specific activity of QR (CD value) for SP001P and SP 2010 were 24 ng/ml and 49 nM, respectively.

[2] = Oxygen Radical Absorbance Capacity (ORAC) assay
Excerpt: Antioxidant Capability of SP001P and SP 2010. The Oxygen Radical Absorbance Capacity (ORAC) assay depends on the free radical damage to a fluorescent probe, such as fluorescein, to result in a downward change of fluorescent intensity. The presence of antioxidants results in an inhibition in the free radical damage to the fluorescent compound. Reactions containing antioxidants and blanks (solvent) are run in parallel using equivalent amounts of a ROS generator and fluorescent probe. The area under the curve (AUC) from the experimental sample is calculated. Results from different samples are compared with Trolox®, (6-hydroxy-2,5,7,8-tetrametmethylchroman-2-carboxylic acid) a water soluble vitamin E analog and ORAC results are expressed as Trolox® equivalents. ORAC values are calculated using the regression equation between Trolox concentration and the net AUC and are expressed as micromole Trolox equivalents per gram of sample. SP001P and SP 2010 are potent antioxidants with values of 357 and 441 micromole Trolox equivalents per gram, respectively.

[3] = test system: NFκB transcription factor in A549/NFκB-luc reporter cell line; test: NF-κB transactivation after rhTNFα in A549/NFκB-luc reporter cell line; assay type: cell-based; details: rhTNFα activation
Excerpt: (§1) Inhibition of activation of NF-kB by SP001P and SP 2010. We evaluated the effects of SP001P and SP 2010 on the activity of NFκB transcription factor after activation with rhTNFα in a reporter cell line A549/NFκB-luc designed by Panomics according to the manufacturer's instructions. […] It is interesting to note that although SP001P has only 20% of SP 2010 yet it produced a dose response curve that was very similar with SP 2010 (FIG. 4A). […] We studied the effects of SP 2010 on TNF-α-dependent activation of NF-κB binding to KB site in nuclear extracts of HeLa cells. To measure the binding of the activated NF-κB to its consensus KB sequence, nuclear extracts from HeLa cells treated with SP 2010 and stimulated with TNFα were prepared by the Panomics Nuclear Extraction kit. Nuclear extracts were diluted to 2 μg/μl and 10 μl of the extract was used to quantify transcription factor activation, specifically that of NF-κB p50 (ELISA, Panomics).

[4] = test system: NF-κB p50 binding to KB site in HeLa cells; test: TNF-α-dependent NF-κB binding to κB site in nuclear extracts of HeLa cells (NF-κB p50 ELISA); assay type: cell-based; details: HeLa cells stimulated with TNFα
Excerpt: as §1

Cc1coc2c1C(=O)C(=O)c1c-2ccc2c1CCCC2(C)C [SP 2010, Tanshinone IIA]
concentration required to double the specific activity of QR (CD value) ([1]; 24 h exposure): 49 nM
stimulation of QR ([1]; FIG. 2): stimulated
ORAC value [2]: 441 micromole Trolox equivalents per gram
transactivation of NF-κB [3]: dose-dependent decrease
NF-κB binding to KB site [4]: dose-dependent decrease
